Several values for one entry are separate records, joined by “and”; a condition that tells them apart may be missing. Equal entries are not always repeated. Where two headings read alike, the source gives them in different places.
Assays:
[1] = clinical; settings: human, po
Procedure: A 2-part study was conducted in subjects with solid tumors (“Study 2”). […] The dose levels increased to 75 mg/m^2, 150 mg/m^2, 225 mg/m^2, 300 mg/m^2, 375 mg/m^2, and 400 mg/m^2. In the second part of this study, half of the group starting at a selected dose from stage 1, was given over two consecutive days every three weeks. A total of 15 (n=40) subjects enrolled in this study.
All subject PK data within the dataset were analyzed using Phoenix 8.0. […] Individual time points for the terminal slope were automatically selected by the software, and linear up—log down interpolation calculation method was used for the analysis. Individual BLQ samples were set to 0.00 ng/ml for noncompartmental analysis unless the PK sample occurred between two PK samples above the limit of quantification, in which case the PK sample was set to missing. For the calculation of summary statistics and mean concentration figures, all BLQ samples were set to 0.00 ng/ml.

[2] = 75 mg/m^2 over 28 days, monotherapy schedule for mHRPC; cited from earlier work
[3] = parameters: Dose Normalized AUC: unit not given beside the values; settings: cited from earlier work
[4] = IV 20 mg/m^2, infusion 1 h, n = 1
[5] = IV 20 mg/m^2, infusion 24 h, n = 1
[6] = IV 30 mg/m^2, infusion 1.58 (0.80) h, n = 2
[7] = IV 40 mg/m^2, infusion 1 h, n = 1
[8] = IV 40 mg/m^2, infusion 24 h, n = 3
[9] = IV 55 mg/m^2, infusion 1.68 (0.75) h, n = 3
[10] = IV 55 mg/m^2, infusion 24 h, n = 4
[11] = IV 70 mg/m^2, infusion 1.37 (0.53) h, n = 2
[12] = IV 70 mg/m^2, infusion 24 h, n = 3
[13] = IV 85 mg/m^2, infusion 1.61 (0.81) h, n = 6
[14] = IV 90 mg/m^2, infusion 24 h, n = 5
[15] = IV 100 mg/m^2, infusion 2.03 (0.09) h, n = 4
[16] = IV 115 mg/m^2, infusion 1.84 (0.28) h, n = 4
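For Average Time above Target (0 to last time point measured above 4 ng/ml) in this document: noncompartmental pharmacokinetic analysis in subjects with solid tumors, using linear-up log-down interpolation, with terminal slope time points picked automatically by the software.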
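For Reported half-life in this document: noncompartmental pharmacokinetic analysis in subjects with solid tumors, using linear-up log-down interpolation, with terminal slope time points picked automatically by the software.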
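For Tmax in this document: noncompartmental pharmacokinetic analysis in subjects with solid tumors, using linear-up log-down interpolation, with terminal slope time points picked automatically by the software.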
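For docetaxel plasma concentration vs in vitro target IC50 of 5 nM (4 ng/mL) in this document: noncompartmental pharmacokinetic analysis in subjects with solid tumors, using linear-up log-down interpolation, with terminal slope time points picked automatically by the software.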

Work on `CC(=O)O[C@@]12CO[C@@H]1C[C@H](O)[C@@]1(C)C(=O)[C@H](O)C3=C(C)[C@@H](OC(=O)[C@H](O)[C@@H](NC(=O)OC(C)(C)C)c4ccccc4)C[C@@](O)([C@@H](OC(=O)c4ccccc4)[C@H]21)C3(C)C` [docetaxel, (2aR,4S,4aS,6R,9S,11S,12S,12aR,12b S)-12b-acetoxy-9-(((2R,3S)-3-((tert-butoxycarbonyl)amino)-2-hydroxy-3-phenylpropanoyl)oxy)-4,6,11-trihydroxy-4a,8,13,13-tetramethyl-5-oxo-2a,3,4,4a,5,6,9,10,11,12,12a, 12b-dodecahydro-1H-7,11-methanocyclodeca[3,4]benzo[1,2-b]oxet-12-yl benzoate] yielded an AUC(0-inf) ([1]; in vivo, 35 mg/m2) of 308 ng·h/mL, a half-life ([1]; in vivo, 150 mg/m2) of 53.2 h and a Cmax ([1]; in vivo, 150 mg/m2, Cmax, oral 150 mg/m^2 with Compound A, individual subjects) of 125 ng/mL. It also gave a half-life ([1]; in vivo, 225 mg/m2) of 54.4 h, a Cmax ([1]; in vivo, 225 mg/m2, Cmax, oral 225 mg/m^2 with Compound A, individual subjects) of 118 ng/mL and an AUC(0-t) ([1]; plasma, 35 mg/m2, AUC0-12, oral 35 mg/m^2 with Compound A, Mean, N=4) of 184 ng·h/mL. The AUC(0-t) ([1]; plasma, 35 mg/m2, AUC0-24, oral 35 mg/m^2 with Compound A, Mean, N=4) was 211 ng·h/mL, the AUC(0-t) ([1]; plasma, 35 mg/m2, AUC0-48, oral 35 mg/m^2 with Compound A, Mean, N=4) was 240 ng·h/mL and the AUC(0-inf) ([1]; plasma, 35 mg/m2, AUCINF—obs, oral 35 mg/m^2 with Compound A, Mean, N=4) was 296 ng·h/mL. For the same molecule, the Cmax ([1]; plasma, 35 mg/m2, Cmax, oral 35 mg/m^2 with Compound A, Mean, N=4) was 69.1 ng/mL, the Cmax ([1]; plasma, 35 mg/m2, Cmax, oral 35 mg/m^2 with Compound A, individual subjects) was 38 to 157 ng/mL and the half-life ([1]; plasma, 35 mg/m2, t1/2, oral 35 mg/m^2 with Compound A, Mean, N=4) was 27.6 h. It also gave a half-life ([1]; plasma, 35 mg/m2, t1/2, oral 35 mg/m^2 with Compound A, mean) of 29.2 h, a concentration at 24 hr ([1]; plasma, 35 mg/m^2, Analyte Concentration, oral 35 mg/m^2, cohort 1, time 24.0 hr, individual subjects) of 1.25 ng/mL and an AUC(0-t) ([1]; plasma, 75 mg/m2, AUC0-48, oral 75 mg/m^2 with Compound A, Mean, N=3) of 675 ng·h/mL. It also gave an AUC(0-inf) ([1]; plasma, 75 mg/m2, AUCINF—obs, oral 75 mg/m^2 with Compound A, Mean, N=3) of 815 ng·h/mL, a Cmax ([1]; plasma, 75 mg/m2, Cmax, oral 75 mg/m^2 with Compound A, Mean, N=3) of 172 ng/mL and a half-life ([1]; plasma, 75 mg/m2, Reported half-life, oral 75 mg/m^2, individual values, sampling to 168 h, LLOQ 0.2 ng/mL) of 51.4 h. The half-life ([1]; plasma, 75 mg/m2, t1/2, oral 75 mg/m^2 with Compound A, Mean, N=3) was 53.1 h, the half-life ([1]; plasma, 75 mg/m2, t1/2, oral 75 mg/m^2 with Compound A, individual subjects) was 51.4 h and the half-life ([1]; plasma, 75 mg/m2, t1/2, oral 75 mg/m^2 with Compound A, mean) was 53.1 h. The concentration at 0.25 hr ([1]; plasma, 75 mg/m^2, Analyte Concentration, oral 75 mg/m^2, cohort 2, time 0.250 hr, individual subjects) was 28 ng/mL, the Tmax ([1]; plasma, 150 mg/m2) was 2.67 h and the AUC(0-t) ([1]; plasma, 150 mg/m2, AUC0-12, oral 150 mg/m^2 with Compound A, individual subjects) was 446 ng·h/mL. For the same molecule, the Cmax ([1]; plasma, 150 mg/m2, Cmax, oral 150 mg/m^2 with Compound A, individual subjects) was 112 to 136 ng/mL, the half-life ([1]; plasma, 150 mg/m2, Reported half-life, oral 150 mg/m^2, individual values, sampling to 168 h, LLOQ 0.2 ng/mL) was 72 h and the half-life ([1]; plasma, 150 mg/m2, t1/2, oral 150 mg/m^2 with Compound A, individual subjects) was 72 h. It also gave a Tmax ([1]; plasma, 225 mg/m2) of 0.5 h, an AUC(0-t) ([1]; plasma, 225 mg/m2, AUC0-24, oral 225 mg/m^2 with Compound A, Mean, N=3) of 792 ng·h/mL and an AUC(0-t) ([1]; plasma, 225 mg/m2, AUC0-24, oral 225 mg/m^2 with Compound A, individual subjects) of 986 ng·h/mL. It also gave an AUC(0-t) ([1]; plasma, 225 mg/m2, AUC0-48, oral 225 mg/m^2 with Compound A, Mean, N=3) of 914 ng·h/mL, an AUC(0-inf) ([1]; plasma, 225 mg/m2, AUCINF—obs, oral 225 mg/m^2 with Compound A, Mean, N=3) of 1190 ng·h/mL and a half-life ([1]; plasma, 225 mg/m2, t1/2, oral 225 mg/m^2 with Compound A, Mean, N=3) of 56 h. For the same molecule, the half-life ([1]; plasma, 225 mg/m2, t1/2, oral 225 mg/m^2 with Compound A, individual subjects) was 67.3 h, the concentration at 1 hr ([1]; plasma, 225 mg/m^2, Analyte Concentration, oral 225 mg/m^2, cohort 4, time 1.00 hr, individual subjects) was 55.6 ng/mL and the concentration at 2 hr ([1]; plasma, 225 mg/m^2, Analyte Concentration, oral 225 mg/m^2, cohort 4, time 2.00 hr, individual subjects) was 118 ng/mL. For the same molecule, the concentration at 4 hr ([1]; plasma, 225 mg/m^2, Analyte Concentration, oral 225 mg/m^2, cohort 4, time 4.00 hr, individual subjects) was 28 ng/mL, the “target AUC” value [2] was 3410 ± 980 ng·h/mL and the AUC0-24 [3, 4] was 960 ng·h/mL. For the same molecule, the “Dose Normalized AUC” value [3, 4] was 48, the “t1/2 γ” value [3, 4] was 2.2 h and the AUC0-24 [3, 5] was 920 ng·h/mL. For the same molecule, the “Dose Normalized AUC” value [3, 5] was 46, the AUC0-24 [3, 6] was 1260 ng·h/mL and the Cmax [3, 6] was 640 (450) ng/ml. The “Dose Normalized AUC” value [3, 6] was 42, the “t1/2 γ” value [3, 6] was 4.6 h and the AUC0-24 [3, 7] was 670 ng·h/mL. For the same molecule, the Cmax [3, 7] was 420 ng/mL, the “Dose Normalized AUC” value [3, 7] was 16.75 and the “t1/2 γ” value [3, 7] was 3.8 h. The AUC0-24 [3, 8] was 2190 ng·h/mL, the “Dose Normalized AUC” value [3, 8] was 54.75 and the AUC0-24 [3, 9] was 1420 ng·h/mL. For the same molecule, the Cmax [3, 9] was 820 (380) ng/ml, the “Dose Normalized AUC” value [3, 9] was 25.82 and the “t1/2 γ” value [3, 9] was 2 h. For the same molecule, the AUC0-24 [3, 10] was 2560 ng·h/mL, the “Dose Normalized AUC” value [3, 10] was 46.55 and the AUC0-24 [3, 11] was 2790 ng·h/mL. For the same molecule, the Cmax [3, 11] was 1910 (320) ng/ml, the “Dose Normalized AUC” value [3, 11] was 39.86 and the “t1/2 γ” value [3, 11] was 2.5 h. For the same molecule, the AUC0-24 [3, 12] was 3470 ng·h/mL, the “Dose Normalized AUC” value [3, 12] was 49.57 and the AUC0-24 [3, 13] was 4100 ng·h/mL. For the same molecule, the Cmax [3, 13] was 2420 (920) ng/ml, the “Dose Normalized AUC” value [3, 13] was 48.24 and the “t1/2 γ” value [3, 13] was 13.6 h. The AUC0-24 [3, 14] was 7810 ng·h/mL, the “Dose Normalized AUC” value [3, 14] was 86.78 and the AUC0-24 [3, 15] was 5930 ng·h/mL. The Cmax [3, 15] was 2410 (250) ng/ml, the “Dose Normalized AUC” value [3, 15] was 59.30 and the “t1/2 γ” value [3, 15] was 18.5 h. The AUC0-24 [3, 16] was 5190 ng·h/mL, the Cmax [3, 16] was 2680 (930) ng/ml and the “Dose Normalized AUC” value [3, 16] was 45.13. The “t1/2 γ” value [3, 16] was 9.6 h, the “docetaxel plasma concentration vs in vitro target IC50 of 5 nM (4 ng/mL)” value (individuals administered 35 or 75 mg/m^2 oral docetaxel) was > 4 ng/mL and the Reported half-life (oral 35 mg/m^2, individual values, sampling to 168 h, LLOQ 0.2 ng/mL) was 35 mg/m^2: 3.4 h, and 19.1 h and 65.3 h. For the same molecule, the “Average Time above Target (0 to last time point measured above 4 ng/ml)” value (oral 35 mg/m^2 SD) was 7.5 h and the “Dose Normalized AUC” value (oral 35 mg/m^2 with Compound A) was 39.97.
